Assay results taken from patent publication US10294202B2, “Pyrrolidinones as herbicides” (FMC Corporation, priority 2013, dated 2019).

Key:
pigweed = assay: Test A pre-/postemergence herbicide test; assay type: in vivo, Amaranthus retroflexus; conditions: for Plant response rating, Pigweed: 0 to 100 scale
Method in brief: (§1)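 Greenhouse pot test with pre- and postemergence application of surfactant-containing solvent formulations. Postemergence plants were 2–10 cm, one- to two-leaf stage. Response scored visually after ~10 days, 0 (no effect) to 100 (complete control).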

kochia = assay: Test A pre-/postemergence herbicide test; assay type: in vivo, Kochia scoparia; conditions: for Plant response rating, Kochia: 0 to 100 scale
Method in brief: as §1

ducksalad = assay: Test B flooded paddy test; assay type: in vivo, Heteranthera limosa; conditions: 500 g ai/ha, Flood; scale of 0 to 100 where 0 is no effect and 100 is complete control
Method in brief: (§2)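 Visual ratings from 0, meaning no effect, up to 100, meaning complete control, were made by comparison with untreated controls 13 to 15 days after treatment. Test compounds went straight into floodwater standing 3 cm over the soil of pots holding 2-leaf seedlings.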

galium = assay: Test A postemergence herbicide test; assay type: in vivo, Galium aparine; conditions: for Plant response rating, Galium: 125 g ai/ha, 0 to 100 scale, 0 no effect, 100 complete control; for Galium plant response rating (0 to 100 scale, 0 is no effect, 100 is complete control): 500 g ai/ha
Method in brief: (§3)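 Blackgrass and galium grown in pots of loam soil–sand blend, treated postemergence at 2–10 cm height, one- to two-leaf stage. Plants kept in greenhouse ~10 days, then visually rated for injury against untreated controls on a 0–100 scale (0 no effect, 100 complete control).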

rice = assay: Test B flooded paddy test; assay type: in vivo, Oryza sativa; conditions: 500 g ai/ha, Flood; scale of 0 to 100 where 0 is no effect and 100 is complete control
Method in brief: as §2

blackgrass = assay: Test A postemergence herbicide test; assay type: in vivo, Alopecurus myosuroides
Method in brief: as §3

barnyardgrass [1] = assay: Test B flooded paddy test; assay type: in vivo, Echinochloa crus-galli; conditions: 500 g ai/ha, Flood; scale of 0 to 100 where 0 is no effect and 100 is complete control
Method in brief: as §2

sedge, umbrella = assay: Test B flooded paddy test; assay type: in vivo, Cyperus difformis; conditions: 500 g ai/ha, Flood; scale of 0 to 100 where 0 is no effect and 100 is complete control
Method in brief: as §2

ragweed = assay: Test A pre-/postemergence herbicide test; assay type: in vivo, Ambrosia elatior; conditions: for Plant response rating, Ragweed: 0 to 100 scale
Method in brief: as §1

wheat = assay: Test A pre-/postemergence herbicide test; assay type: in vivo, Triticum aestivum; conditions: Postemergence; for Plant response rating, Wheat: 125 g ai/ha, 0 to 100 scale, 0 no effect, 100 complete control; for Wheat plant response rating (0 to 100 scale, 0 is no effect, 100 is complete control): 500 g ai/ha
Method in brief: as §1

corn = assay: Test A pre-/postemergence herbicide test; assay type: in vivo, Zea mays; conditions: Postemergence
Method in brief: as §1

ryegrass, Italian = assay: Test A pre-/postemergence herbicide test; assay type: in vivo, Lolium multiflorum; conditions: for Plant response rating, Ryegrass, Italian: 0 to 100 scale
Method in brief: as §1

giant foxtail = assay: Test A pre-/postemergence herbicide test; assay type: in vivo, Setaria faberii; conditions: for Plant response rating, Foxtail, Giant: 0 to 100 scale
Method in brief: as §1

barnyardgrass [2] = assay: Test A pre-/postemergence herbicide test; assay type: in vivo, Echinochloa crus-galli
Method in brief: as §1

[3] = 125 g ai/ha, visual rating, 0 no effect, 100 complete control, approximately 10 days, preemergence
[4] = Postemergence, 125 g ai/ha, 0 no effect, 100 complete control
[5] = 125 g ai/ha, 0 to 100 scale, 0 no effect, 100 complete control
[6] = 500 g ai/ha, 0 to 100 scale (0 no effect, 100 complete control)
[7] = 125 g ai/ha, visual rating, 0 to 100 scale, 0 no effect, 100 complete control, approximately 10 days, preemergence
[8] = Postemergence, 125 g ai/ha, 0 to 100 scale, 0 no effect, 100 complete control
[9] = preemergence, 500 g ai/ha, 0 to 100 scale (0 no effect, 100 complete control)

Row | Compound | Plant response rating, Pigweed (pigweed; [3]) | Plant response rating, Pigweed (pigweed; [4]) | Pigweed plant response rating (0 to 100 scale, 0 is no effect, 100 is complete control) (pigweed; Postemergence, 500 g ai/ha) | Plant response rating, Pigweed (pigweed; preemergence, 500 g ai/ha) | Plant response rating, Kochia (kochia; [3]) | Plant response rating, Kochia (kochia; [4]) | Kochia plant response rating (0 to 100 scale, 0 is no effect, 100 is complete control) (kochia; Postemergence, 500 g ai/ha) | Plant response rating, Kochia (kochia; preemergence, 500 g ai/ha) | Plant response rating, Ducksalad (ducksalad) | Plant response rating, Galium (galium) | Galium plant response rating (0 to 100 scale, 0 is no effect, 100 is complete control) (galium) | Plant response rating, Rice (rice) | Plant response rating, Blackgrass (blackgrass; [5]) | Plant response rating, Barnyardgrass (barnyardgrass [1]) | Plant response rating, Sedge, Umbrella (sedge, umbrella) | Plant response rating, Ragweed (ragweed; [3]) | Plant response rating, Ragweed (ragweed; [4]) | Ragweed plant response rating (0 to 100 scale, 0 is no effect, 100 is complete control) (ragweed; Postemergence, 500 g ai/ha) | Plant response rating, Ragweed (ragweed; preemergence, 500 g ai/ha) | Plant response rating, Wheat (wheat) | other results
1 | O=C1NCC(c2cccc(OC(F)(F)C(F)F)c2)C1C(=O)Nc1ccccc1Cl (racemic) [Compound 125] | 0 | 0 | 20 | 0 | 30 | 20 | 60 | 70 | 85 | 0 | 60 | 0 | 20 | 30 | 0 | 0 | 0 | 0 | 0 | 0 | Plant response rating, Blackgrass (blackgrass; [6]): 50; Wheat plant response rating (0 to 100 scale, 0 is no effect, 100 is complete control) (wheat): 0; Plant response rating, Corn (corn; [5]): 0; Plant response rating, Corn (corn; [6]): 0; Plant response rating, Ryegrass, Italian (ryegrass, Italian; [3]): 0; Plant response rating, Ryegrass, Italian (ryegrass, Italian; [4]): 0; Ryegrass, Italian plant response rating (0 to 100 scale, 0 is no effect, 100 is complete control) (ryegrass, Italian; Postemergence, 500 g ai/ha): 0; Plant response rating, Ryegrass, Italian (ryegrass, Italian; preemergence, 500 g ai/ha): 20; Plant response rating, Foxtail, Giant (giant foxtail; [3]): 80; Plant response rating, Foxtail, Giant (giant foxtail; [4]): 70; Foxtail, Giant plant response rating (0 to 100 scale, 0 is no effect, 100 is complete control) (giant foxtail; Postemergence, 500 g ai/ha): 80; Plant response rating, Foxtail, Giant (giant foxtail; preemergence, 500 g ai/ha): 90; Plant response rating, Barnyardgrass (barnyardgrass [2]; [7]): 80; Plant response rating, Barnyardgrass (barnyardgrass [2]; [8]): 60; Plant response rating, Barnyardgrass (barnyardgrass [2]; Postemergence, 500 g ai/ha, 0 to 100 scale (0 no effect, 100 complete control)): 70; Plant response rating, Barnyardgrass (barnyardgrass [2]; [9]): 90
2 | COc1cc(C2CNC(=O)C2C(=O)Nc2ccc(F)cc2F)ccc1F (racemic) [Compound 131] | 0 | 0 | 0 | 0 | 0 | 0 | 0 | 0 | 70 | 0 | 0 | 0 | 0 | 40 | 30 | 0 | 0 | 0 | 0 | 0 | Blackgrass plant response rating (0 to 100 scale, 0 is no effect, 100 is complete control) (blackgrass; 500 g ai/ha): 0; Wheat plant response rating (0 to 100 scale, 0 is no effect, 100 is complete control) (wheat): 0; Plant response rating, Corn (corn; [5]): 0; Corn plant response rating (0 to 100 scale, 0 is no effect, 100 is complete control) (corn; 500 g ai/ha): 0; Plant response rating, Ryegrass, Italian (ryegrass, Italian; [3]): 0; Plant response rating, Ryegrass, Italian (ryegrass, Italian; [4]): 0; Ryegrass, Italian plant response rating (0 to 100 scale, 0 is no effect, 100 is complete control) (ryegrass, Italian; Postemergence, 500 g ai/ha): 0; Plant response rating, Ryegrass, Italian (ryegrass, Italian; preemergence, 500 g ai/ha): 0; Plant response rating, Foxtail, Giant (giant foxtail; [3]): 50; Plant response rating, Foxtail, Giant (giant foxtail; [4]): 50; Foxtail, Giant plant response rating (0 to 100 scale, 0 is no effect, 100 is complete control) (giant foxtail; Postemergence, 500 g ai/ha): 50; Plant response rating, Foxtail, Giant (giant foxtail; preemergence, 500 g ai/ha): 60; Plant response rating, Barnyardgrass (barnyardgrass [2]; [7]): 50; Plant response rating, Barnyardgrass (barnyardgrass [2]; [8]): 50; Barnyardgrass plant response rating (0 to 100 scale, 0 is no effect, 100 is complete control) (barnyardgrass [2]; Postemergence, 500 g ai/ha): 60; Plant response rating, Barnyardgrass (barnyardgrass [2]; [9]): 60
